Source: publication PMC8300687, “A Fine-Tuned Lipophilicity/Hydrophilicity Ratio Governs Antibacterial Potency and Selectivity of Bifurcated Halogen Bond-Forming NBTIs” (Antibiotics, 2021)
≈ marks a conversion by molar mass, not a printed value. Read-outs that look alike come from different tables or passages of the source.

Experiments:
S. aureus Topo IV = biological target: T1, S. aureus Topo IV (Staphylococcus aureus, UniProt Q2FYS4); test: biochemical; conditions: mean of two to four measurements; read-out: Topoisomerase IV IC50 S. aureus
T1 construct: purchased Inspiralis (Norwich, UK)
Method: (§1) A Topo IV Relaxation High Throughput Plate assay kit, purchased from Inspiralis (Norwich. UK) was used to determine IC50 values of compounds on S. aureus and E. coli. […] Biotinylated oligonucleotide in wash buffer was immobilized onto the wells, and the excess oligonucleotide was washed off with wash buffer and ultrapure water. 1.5 U of S. aureus or E. coli […] enzyme was incubated together with 0.75 μg of supercoiled pNO1 plasmid as a substrate in the presence of 3 μL inhibitor solution in 10% DMSO and 0.008% Tween 20 at 37 °C for 30 min in a final reaction volume of 30 μL in dilution buffer (50 mM Tris-HCl (pH 7.5), 1 mM DTT, 1 mM EDTA, 40% (w/v) glycerol for S. aureus and 40 mM HEPES, KOH (pH 7.6), 100 mM potassium glutamate, 1 mM DTT, 1 mM EDTA, and 40% (v/v) glycerol for E. coli). The reactions were stopped by adding the TF buffer (50 mM NaOAc (pH 4.7), 50 mM NaCl, and 50 mM MgCl2) to allow the triplex formation (biotin-oligonucleotide-plasmid) for additional 30 min. Afterward, the unbound plasmid was washed off using TF buffer, and the solution of Promega Diamond dye in T10 buffer (10 mM Tris-HCl (pH 8.0), 1 mM EDTA) was added. […] IC50 value represents the mean of two to four independent measurements.

E. coli Topo IV = biological target: T2, E. coli Topo IV (Escherichia coli, UniProt P0AFI2); test: Topo IV Relaxation High Throughput Plate assay, E. coli; assay type: biochemical
T2 construct: purchased Inspiralis (Norwich, UK)
Method: as §1

Human topoisomerase IIα = biological target: T3, Human topoisomerase IIα (Homo sapiens, UniProt P11388); test: Human topoisomerase II Alpha Relaxation High Throughput Plate assay; assay type: biochemical; conditions: 0.5 h; residual activity of the enzyme at compound concentration 10 μM, mean ± SD; read-out: Human Topo II (% RA)
T3 construct: purchased Inspiralis (Norwich, UK)
Method: A Human topoisomerase II Alpha Relaxation High Throughput Plate assay kit, purchased from Inspiralis (Norwich, UK) was used to evaluate the selectivity of compounds for the bacterial enzymes over the homologous human topoisomerase II. […] Biotinylated oligonucleotide in wash buffer was immobilized onto the wells and the excess oligonucleotide was washed off with wash buffer. […] The reactions were stopped by adding the TF buffer (50 mM NaOAc (pH 4.7), 50 mM NaCl, and 50 mM MgCl2) to allow the triplex formation (biotin-oligonucleotide-plasmid) for additional 30 min. Afterward, the unbound plasmid was washed off using TF buffer, and the solution of Promega Diamond dye in T10 buffer (10 mM Tris-HCl (pH 8.0), 1 mM EDTA) was added. […] Screening was performed at inhibitor concentrations of 10 μM. Raw data were converted to mean ± SD percentage of residual activity of the enzyme obtained by two independent measurements.

S. aureus (ATCC 29213) = test: MIC broth microdilution, S. aureus ATCC 29213; assay type: cell-based
Method: (§2) Antimicrobial testing was carried out by the broth microdilution method in 96-well plate format following the Clinical and Laboratory Standards Institute (CLSI) guidelines and European Committee on Antimicrobial Susceptibility Testing (EUCAST) recommendations. Bacterial suspension of specific bacterial strain equivalent to 0.5 McFarland turbidity standard was diluted with cation-adjusted Mueller Hinton broth with TES (Thermo Fisher Diagnostic, Landsmeer, The Netherlands), to obtain a final inoculum of 10^5 CFU/mL. Compounds dissolved in DMSO and inoculum were mixed together and incubated for 18–20 h at 35 °C. Suspensions of Mycobacterium sp. were prepared into a tube of Middelbrook 7H9 broth supplemented with 5% OADC (Thermo Scientific, Trek Diagnostic Systems, West Sussex, UK) and incubated for at least 10 days. After incubation the minimal inhibitory concentration (MIC) values were determined by visual inspection as the lowest dilution of compounds showing no turbidity. Tetracycline was used as a positive control on every assay plate.

MRSA = test: MIC broth microdilution, MRSA; assay type: cell-based, methicillin-resistant S. aureus; conditions: Staphylococcus aureus, read-out: MIC MRSA
Method: as §2

MRSA (QA-11.7) = test: MIC broth microdilution, MRSA QA-11.7; assay type: cell-based, methicillin-resistant S. aureus; conditions: Staphylococcus aureus, 20 h, read-out: MIC MRSA (QA-11.7)
Method: as §2

MRSA (QA-11.4) = test: MIC broth microdilution, MRSA QA-11.4; assay type: cell-based, methicillin-resistant S. aureus; conditions: Staphylococcus aureus, 20 h, read-out: MIC MRSA (QA-11.4)
Method: as §2

[1] = test system: E. faecalis DRK 057 (ATCC 29212); test: MIC broth microdilution, E. faecalis; assay type: cell-based
Method: as §2

S. pneumoniae (QA-10/02) = test: MIC broth microdilution, S. pneumoniae; assay type: cell-based; conditions: Streptococcus pneumoniae
Method: as §2

E. coli (ATCC 25922) = test: MIC broth microdilution, E. coli ATCC 25922; assay type: cell-based
Method: as §2

E. coli (QA-11.7) = test: MIC broth microdilution, E. coli QA-11.7; assay type: cell-based; conditions: Escherichia coli, 20 h, read-out: MIC E. coli (QA-11.7)
Method: as §2

E. coli (QA-11.3) = test: MIC broth microdilution, E. coli QA-11.3; assay type: cell-based
Method: as §2

E. coli D22 = test: MIC broth microdilution, E. coli D22; assay type: cell-based; conditions: Escherichia coli
Method: as §2

[2] = test system: A. baumannii 8C6 (GES-14); test: MIC broth microdilution, A. baumannii; assay type: cell-based
Method: as §2

[3] = test system: P. aeruginosa RDK 184 (DSM 939); test: MIC broth microdilution, P. aeruginosa; assay type: cell-based
Method: as §2

[4] = test system: C. jejuni RDK 135 (ATCC 33560); test: MIC broth microdilution, C. jejuni; assay type: cell-based
Method: as §2

M. smegmatis = test: MIC, M. smegmatis; assay type: cell-based, Mycobacterium smegmatis; conditions: Mycolicibacterium smegmatis; read-out: MIC M. smegmatis
Method: as §2

[5] = Staphylococcus aureus, ATCC29213, read-out: MIC S. aureus (ATCC 29213)
[6] = Enterococcus faecalis, ATCC29212, read-out: MIC E. faecalis DRK 057 (ATCC 29212)
[7] = Escherichia coli, ATCC25922, read-out: MIC E. coli (ATCC 25922)
[8] = Escherichia coli, 20 h, read-out: MIC E. coli (QA-11.3)
[9] = Acinetobacter baumannii, read-out: MIC A. baumannii 8C6 (GES-14)
[10] = Pseudomonas aeruginosa, DSM939, read-out: MIC P. aeruginosa RDK 184 (DSM 939)
[11] = Campylobacter jejuni, ATCC33560, read-out: MIC C. jejuni RDK 135 (ATCC 33560)
[12] = Staphylococcus aureus, ATCC29213; S. aureus ATCC 29213; read-out: S. aureus MIC (converted)

T3 sequence (P11388 whole entry): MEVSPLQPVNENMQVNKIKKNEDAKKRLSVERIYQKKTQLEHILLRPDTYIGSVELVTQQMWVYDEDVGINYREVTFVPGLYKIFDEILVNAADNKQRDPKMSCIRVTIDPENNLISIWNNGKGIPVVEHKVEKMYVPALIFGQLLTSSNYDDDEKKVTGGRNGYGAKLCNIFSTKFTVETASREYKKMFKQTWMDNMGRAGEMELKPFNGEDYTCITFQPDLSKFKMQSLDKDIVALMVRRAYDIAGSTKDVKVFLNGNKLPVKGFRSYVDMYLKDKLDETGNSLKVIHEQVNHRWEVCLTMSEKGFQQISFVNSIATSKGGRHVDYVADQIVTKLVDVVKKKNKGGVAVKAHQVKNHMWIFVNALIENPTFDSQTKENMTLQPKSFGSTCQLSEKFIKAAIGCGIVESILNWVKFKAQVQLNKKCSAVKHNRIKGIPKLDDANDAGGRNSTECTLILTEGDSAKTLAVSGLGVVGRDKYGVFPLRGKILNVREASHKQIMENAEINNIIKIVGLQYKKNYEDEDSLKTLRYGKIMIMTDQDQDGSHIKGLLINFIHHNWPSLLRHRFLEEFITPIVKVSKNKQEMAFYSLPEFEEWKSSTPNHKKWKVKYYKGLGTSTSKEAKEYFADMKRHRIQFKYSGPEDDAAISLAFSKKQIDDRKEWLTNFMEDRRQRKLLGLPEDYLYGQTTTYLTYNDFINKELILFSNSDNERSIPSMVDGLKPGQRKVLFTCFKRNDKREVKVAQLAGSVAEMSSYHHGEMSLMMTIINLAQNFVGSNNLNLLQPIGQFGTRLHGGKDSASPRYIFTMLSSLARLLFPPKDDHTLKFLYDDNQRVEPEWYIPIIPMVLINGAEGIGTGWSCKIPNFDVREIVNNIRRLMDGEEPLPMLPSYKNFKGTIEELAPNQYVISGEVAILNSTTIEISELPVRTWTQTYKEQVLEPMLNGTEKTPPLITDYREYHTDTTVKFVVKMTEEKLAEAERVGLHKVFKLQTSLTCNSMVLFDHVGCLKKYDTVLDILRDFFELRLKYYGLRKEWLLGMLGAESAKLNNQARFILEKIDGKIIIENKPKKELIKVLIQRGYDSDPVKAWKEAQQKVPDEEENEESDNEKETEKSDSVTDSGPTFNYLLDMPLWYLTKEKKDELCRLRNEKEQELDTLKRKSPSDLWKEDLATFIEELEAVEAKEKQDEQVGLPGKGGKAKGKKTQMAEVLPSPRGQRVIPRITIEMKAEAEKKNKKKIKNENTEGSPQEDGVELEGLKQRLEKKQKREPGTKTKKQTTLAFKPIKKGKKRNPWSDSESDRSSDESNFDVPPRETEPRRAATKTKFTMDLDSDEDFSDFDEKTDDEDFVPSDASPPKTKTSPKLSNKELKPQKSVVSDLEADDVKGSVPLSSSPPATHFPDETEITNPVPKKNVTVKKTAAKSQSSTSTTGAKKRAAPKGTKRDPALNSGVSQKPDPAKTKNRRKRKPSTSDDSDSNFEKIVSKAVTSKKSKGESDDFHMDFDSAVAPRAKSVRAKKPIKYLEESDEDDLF
T1 sequence (Q2FYS5 whole entry): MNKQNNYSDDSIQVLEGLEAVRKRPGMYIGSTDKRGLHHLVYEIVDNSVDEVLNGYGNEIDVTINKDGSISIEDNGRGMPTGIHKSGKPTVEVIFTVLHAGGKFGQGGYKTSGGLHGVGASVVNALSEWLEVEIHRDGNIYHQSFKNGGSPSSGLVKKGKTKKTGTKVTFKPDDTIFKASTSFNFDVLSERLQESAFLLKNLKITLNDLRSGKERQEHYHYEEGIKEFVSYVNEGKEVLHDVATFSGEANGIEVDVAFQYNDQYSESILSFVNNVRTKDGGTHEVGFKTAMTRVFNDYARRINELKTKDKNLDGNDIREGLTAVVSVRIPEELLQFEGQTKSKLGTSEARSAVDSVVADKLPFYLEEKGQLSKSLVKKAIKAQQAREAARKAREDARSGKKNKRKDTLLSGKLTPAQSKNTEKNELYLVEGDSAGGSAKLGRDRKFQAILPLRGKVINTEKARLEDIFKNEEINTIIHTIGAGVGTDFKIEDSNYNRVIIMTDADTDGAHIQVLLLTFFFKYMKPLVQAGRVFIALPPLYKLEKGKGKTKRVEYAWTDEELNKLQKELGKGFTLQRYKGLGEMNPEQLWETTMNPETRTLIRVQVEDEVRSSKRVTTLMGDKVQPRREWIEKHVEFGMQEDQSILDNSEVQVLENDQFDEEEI
T1 sequence (Q2FYS4 whole entry): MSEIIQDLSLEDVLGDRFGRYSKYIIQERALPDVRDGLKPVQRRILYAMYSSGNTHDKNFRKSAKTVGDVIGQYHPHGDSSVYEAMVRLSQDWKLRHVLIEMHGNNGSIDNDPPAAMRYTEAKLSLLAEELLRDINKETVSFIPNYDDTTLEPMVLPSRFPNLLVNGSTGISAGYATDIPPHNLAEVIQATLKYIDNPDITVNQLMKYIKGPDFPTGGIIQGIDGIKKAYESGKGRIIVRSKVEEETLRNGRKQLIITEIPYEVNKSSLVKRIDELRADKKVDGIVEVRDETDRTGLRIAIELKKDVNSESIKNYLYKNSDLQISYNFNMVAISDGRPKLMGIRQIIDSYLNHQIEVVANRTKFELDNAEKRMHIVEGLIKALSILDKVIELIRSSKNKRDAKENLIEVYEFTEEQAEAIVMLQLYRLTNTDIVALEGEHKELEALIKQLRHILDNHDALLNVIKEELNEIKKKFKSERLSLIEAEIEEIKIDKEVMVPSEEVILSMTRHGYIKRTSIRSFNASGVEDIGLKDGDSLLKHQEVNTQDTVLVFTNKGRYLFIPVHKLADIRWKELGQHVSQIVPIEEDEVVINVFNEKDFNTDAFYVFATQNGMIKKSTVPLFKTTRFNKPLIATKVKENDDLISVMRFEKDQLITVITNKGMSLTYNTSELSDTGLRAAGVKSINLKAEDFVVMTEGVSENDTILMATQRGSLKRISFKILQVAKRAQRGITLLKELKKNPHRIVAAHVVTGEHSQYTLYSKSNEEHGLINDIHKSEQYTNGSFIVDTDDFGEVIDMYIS
T2 sequence (P0AFI2 whole entry): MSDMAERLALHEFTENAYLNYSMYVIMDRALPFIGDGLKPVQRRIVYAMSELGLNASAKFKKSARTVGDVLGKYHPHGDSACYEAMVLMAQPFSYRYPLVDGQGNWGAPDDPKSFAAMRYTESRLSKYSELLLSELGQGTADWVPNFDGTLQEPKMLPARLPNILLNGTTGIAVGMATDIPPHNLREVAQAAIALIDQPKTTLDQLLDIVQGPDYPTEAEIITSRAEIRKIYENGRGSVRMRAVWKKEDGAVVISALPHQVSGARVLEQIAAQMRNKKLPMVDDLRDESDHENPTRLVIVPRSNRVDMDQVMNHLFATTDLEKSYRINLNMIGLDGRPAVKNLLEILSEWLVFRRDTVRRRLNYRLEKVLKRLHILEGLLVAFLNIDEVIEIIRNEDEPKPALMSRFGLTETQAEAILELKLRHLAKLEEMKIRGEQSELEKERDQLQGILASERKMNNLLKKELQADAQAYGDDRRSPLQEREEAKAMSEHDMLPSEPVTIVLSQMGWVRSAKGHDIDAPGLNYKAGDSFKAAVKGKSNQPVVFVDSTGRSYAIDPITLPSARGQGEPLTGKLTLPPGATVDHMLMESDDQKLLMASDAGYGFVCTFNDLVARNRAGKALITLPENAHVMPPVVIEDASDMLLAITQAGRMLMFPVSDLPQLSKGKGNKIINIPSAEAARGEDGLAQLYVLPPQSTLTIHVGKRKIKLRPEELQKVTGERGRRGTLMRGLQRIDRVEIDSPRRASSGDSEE
T2 sequence (P20083 whole entry, further chain): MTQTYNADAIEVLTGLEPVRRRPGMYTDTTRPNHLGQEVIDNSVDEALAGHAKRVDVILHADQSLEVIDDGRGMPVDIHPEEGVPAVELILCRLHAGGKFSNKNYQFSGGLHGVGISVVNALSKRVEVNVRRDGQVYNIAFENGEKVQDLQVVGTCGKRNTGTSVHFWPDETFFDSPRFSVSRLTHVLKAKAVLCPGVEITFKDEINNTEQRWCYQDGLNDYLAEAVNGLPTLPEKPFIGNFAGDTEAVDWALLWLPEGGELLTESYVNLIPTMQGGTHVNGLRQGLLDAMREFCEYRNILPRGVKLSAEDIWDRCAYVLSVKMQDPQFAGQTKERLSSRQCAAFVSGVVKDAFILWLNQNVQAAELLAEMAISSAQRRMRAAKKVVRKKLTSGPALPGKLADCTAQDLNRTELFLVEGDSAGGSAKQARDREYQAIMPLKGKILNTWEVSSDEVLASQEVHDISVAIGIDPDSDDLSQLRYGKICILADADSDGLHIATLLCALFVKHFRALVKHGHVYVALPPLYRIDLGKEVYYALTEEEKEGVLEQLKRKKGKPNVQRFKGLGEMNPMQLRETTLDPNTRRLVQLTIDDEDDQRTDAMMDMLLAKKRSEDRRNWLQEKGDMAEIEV

| SMILES | IC50 (S. aureus Topo IV) [µM] | IC50 (E. coli Topo IV) [µM] | remaining activity at 10 µM (Human topoisomerase IIα) [%] | MIC (S. aureus (ATCC 29213); [5]) [µg/mL] | MIC (MRSA) [µg/mL] | MIC (MRSA (QA-11.7)) [µg/mL] | MIC (MRSA (QA-11.4)) [µg/mL] | MIC [1, 6] [µg/mL] | MIC (S. pneumoniae (QA-10/02)) [µg/mL] | MIC (E. coli (ATCC 25922); [7]) [µg/mL] | MIC (E. coli (QA-11.7)) [µg/mL] | MIC (E. coli (QA-11.3); [8]) [µg/mL] | MIC (E. coli D22; D22, read-out: MIC E. coli D22) [µg/mL] | MIC [2, 9] [µg/mL] | MIC [3, 10] [µg/mL] | MIC [4, 11] [µg/mL] | MIC (M. smegmatis) [µg/mL] | MIC (S. aureus (ATCC 29213); [12]) [µM] | also measured |
| --- | --- | --- | --- | --- | --- | --- | --- | --- | --- | --- | --- | --- | --- | --- | --- | --- | --- | --- | --- |
| COc1ccc2nccc(CCN3CCC(NCc4c(C)nc5c(C)cccn45)CC3)c2n1 [Compound 6, N-((2,8-Dimethylimidazo[1,2-a]pyridin-3-yl)methyl)-1-(2-(6-methoxy-1,5-naphthyridin-4-yl)ethyl)piperidin-4-amine] | > 100 | > 100 | 99.4 ± 9.93 | > 128 | > 128 | > 128 | > 128 | > 128 | > 128 | > 128 | > 128 | 128 (≈ 288 µM) | > 128 | > 128 | > 128 | > 128 | 64 (≈ 144 µM) | – | MIC (S. aureus (ATCC 29213); Staphylococcus aureus, ATCC29213, read-out: S. aureus MIC in molar): 288 µM; MIC (E. coli (ATCC 25922); Escherichia coli, ATCC25922, 20 h, read-out: E. coli MIC in molar): 288 µM |
| COc1ccc2nccc(CCN3CCC(NC(=O)c4cn5cccc(C#N)c5n4)CC3)c2n1 [Compound 7, 8-Cyano-N-(1-(2-(6-methoxy-1,5-naphthyridin-4-yl)ethyl)piperidin-4-yl)imidazo[1,2-a]pyridine-2-carboxamide] | > 100 | > 100 | 90.3 ± 7.56 | > 128 | > 128 | > 128 | > 128 | > 128 | 128 (≈ 281 µM) | > 128 | > 128 | > 128 | > 128 | > 128 | > 128 | > 128 | 16 (≈ 35.1 µM) | 281 | MIC (E. coli (ATCC 25922); Escherichia coli, ATCC25922, 20 h; E. coli ATCC 25922; read-out: E. coli MIC (converted)): 281 µM |
| COc1ccc2nccc(CCN3CCC(NCc4cnn(-c5ccccc5)n4)CC3)c2n1 [Compound 8, 1-(2-(6-Methoxy-1,5-naphthyridin-4-yl)ethyl)-N-((2-phenyl-2H-1,2,3-triazol-4-yl)methyl)piperidin-4-amine] | > 100 | 0.21 | 94.2 ± 2.9 | – | 0.5 (≈ 1.13 µM) | 0.5 (≈ 1.13 µM) | – | – | 0.25 (≈ 0.564 µM) | – | – | – | – | – | – | – | 0.5 (≈ 1.13 µM) | 1.13 | LE Topo IV E. coli (E. coli Topo IV; LE = (1.37/HA) × pIC50): 0.28; MIC (S. aureus (ATCC 29213); Staphylococcus aureus, ATCC29213; read-out: MIC S. aureus (ATCC 29213)): 0.5 µg/mL; MIC (MRSA (QA-11.4); resistant to cefoxitin): 1 µg/mL (≈ 2.25 µM); MIC ([1]; Enterococcus faecalis, ATCC29212; read-out: MIC E. faecalis DRK 057 (ATCC 29212)): 1 µg/mL (≈ 2.25 µM); MIC (E. coli (ATCC 25922); Escherichia coli, ATCC25922; E. coli ATCC 25922; read-out: E. coli MIC (converted)): 144 µM; MIC (E. coli (ATCC 25922); Escherichia coli, ATCC25922; read-out: MIC E. coli (ATCC 25922)): 64 µg/mL; MIC (E. coli (QA-11.7); multi-resistant isolate (ampicillin, azithromycin, cefotaxime, ertapenem, imipenem and others)): 4 µg/mL (≈ 9.02 µM); MIC (E. coli (QA-11.3); Escherichia coli, 20 h; read-out: MIC E. coli (QA-11.3)): 32 µg/mL (≈ 72.1 µM); MIC (E. coli D22; D22, mutation in the lpxC gene that increases membrane permeability, read-out: MIC E. coli D22): 32 µg/mL (≈ 72.1 µM); MIC ([2]; Acinetobacter baumannii; read-out: MIC A. baumannii 8C6 (GES-14)): 32 µg/mL (≈ 72.1 µM); MIC ([3]; Pseudomonas aeruginosa, DSM939; read-out: MIC P. aeruginosa RDK 184 (DSM 939)): > 128 µg/mL; MIC ([4]; Campylobacter jejuni, ATCC33560; read-out: MIC C. jejuni RDK 135 (ATCC 33560)): 4 µg/mL (≈ 9.02 µM) |
